In US12281149B2, “Modulators of G-protein coupled receptors” (priority 2021, dated 2025):
*1 amine or outer side, *2 acyl side, *3 side chain or, on linkers, in order; H or OH if unused. Where a SMILES comes first, the peptide text is derived from it. Side-chain parts run from the residue outwards. [ ]: non-standard residue; d: D form. The star is where a group is joined. Isobutyryl(2-(3-CN-5-F-Ph)) = CC(C)(C(=O)*)c1cc(F)cc(C#N)c1; C20 diacid = O=C(O)CCCCCCCCCCCCCCCCCCC(=O)*; X31 = CC(C)(C(=S)NCCC(=O)*)c1cc(F)cc(C#N)c1; γGlu = O=C(O)[C@H](CCC(=O)[*:2])N[*:1]; X65 = CC(C)(C(=O)*)c1cc(N)cc(F)c1; X14 = CC(C)(C(=O)*)n1cc(Br)cn1; X25 = CC(C)(C(=O)*)n1cc(F)cn1; αMeL = CC(C)C[C@](C)(N)C(=O)O; Orn = NCCC[C@H](N)C(=O)O; AEEA = NCCOCCOCC(=O)O; Aib = CC(C)(N)C(=O)O; βAla = NCCC(=O)O

Columns and labels:
Assay type in all cases: cell-based
[1] = target: T1, GIP receptor (Homo sapiens, UniProt P48546); test: HitHunter cAMP assay, GIP receptor; details: for EC50: CHO cells stably expressing GIP receptor, cAMP accumulation, 30 min, read-out: EC50 GIP-1R; for Emax: CHO cells, cAMP, normalized to maximum signal from GIP (high) and DMSO (low), read-out: Emax GIP-1R
T1 sequence (P48546 22-466): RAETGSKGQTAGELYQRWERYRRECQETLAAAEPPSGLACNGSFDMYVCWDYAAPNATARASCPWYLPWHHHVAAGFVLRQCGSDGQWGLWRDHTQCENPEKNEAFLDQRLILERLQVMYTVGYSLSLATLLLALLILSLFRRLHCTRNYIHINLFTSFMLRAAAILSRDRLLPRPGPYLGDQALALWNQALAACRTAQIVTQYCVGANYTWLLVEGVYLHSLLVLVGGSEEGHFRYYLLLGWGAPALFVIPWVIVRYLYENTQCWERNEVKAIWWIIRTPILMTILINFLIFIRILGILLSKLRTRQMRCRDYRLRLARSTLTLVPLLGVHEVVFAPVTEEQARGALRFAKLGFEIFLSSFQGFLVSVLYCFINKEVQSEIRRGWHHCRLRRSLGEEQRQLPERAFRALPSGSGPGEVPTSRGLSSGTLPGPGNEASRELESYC

[2] = target: T2, GLP-1 receptor (Homo sapiens, UniProt P43220); test: HitHunter cAMP assay, GLP-1 receptor; details: for EC50: CHO cells stably expressing human GLP-1 receptor, cAMP accumulation, 30 min, read-out: EC50 GLP-1R; for Emax: CHO cells, cAMP, normalized to maximum signal from GLP-1 (high) and DMSO (low), read-out: Emax GLP-1R
[3] = target: T2, GLP-1 receptor; test: PathHunter β-arrestin assay, GLP-1 receptor; design: host or cells: PathHunter CHO-K1 GLP1R β-Arrestin Cell Line; details: β-arrestin-2 recruitment, PathHunter CHO-K1 GLP1R β-Arrestin Cell Line, 90 min at 37° C.; normalized to GLP-1; read-out: GLP-1R β Arrestin EC50
[4] = target: T1, GIP receptor; test: PathHunter β-arrestin assay, GIP receptor; design: host or cells: PathHunter CHO-K1 GIPR β-Arrestin Cell Line; details: β-arrestin-2 recruitment, PathHunter CHO-K1 GIPR β-Arrestin Cell Line, 90 min at 37° C.; normalized to GIP; read-out: GIPR β Arrestin EC50

T2 sequence (P43220 24-463): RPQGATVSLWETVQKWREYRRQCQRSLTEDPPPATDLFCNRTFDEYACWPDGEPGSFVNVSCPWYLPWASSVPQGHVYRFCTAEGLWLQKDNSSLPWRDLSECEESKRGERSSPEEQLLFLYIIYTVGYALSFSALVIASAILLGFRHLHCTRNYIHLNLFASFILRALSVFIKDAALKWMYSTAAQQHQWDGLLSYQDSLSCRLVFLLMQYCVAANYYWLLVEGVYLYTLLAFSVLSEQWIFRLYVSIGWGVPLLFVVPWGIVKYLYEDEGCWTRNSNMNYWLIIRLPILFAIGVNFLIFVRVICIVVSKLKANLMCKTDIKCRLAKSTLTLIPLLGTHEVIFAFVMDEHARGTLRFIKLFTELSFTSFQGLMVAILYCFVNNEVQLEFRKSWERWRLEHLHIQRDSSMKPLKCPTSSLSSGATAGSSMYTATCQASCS

SMILES: CC[C@H](C)[C@H](NC(=O)[C@H](CC(C)C)NC(=O)[C@H](Cc1c[nH]c2ccccc12)NC(=O)[C@H](CCC(N)=O)NC(=O)[C@@H](NC(=O)[C@H](Cc1ccccc1)NC(=O)[C@H](C)NC(=O)[C@H](CCCCNC(=O)COCCOCCNC(=O)COCCOCCNC(=O)CC[C@H](NC(=O)CCCCCCCCCCCCCCCCCCC(=O)O)C(=O)O)NC(=O)[C@H](CCC(N)=O)NC(=O)[C@H](C)NC(=O)[C@@H](NC(=O)[C@H](CCCCN)NC(=O)[C@H](CC(=O)O)NC(=O)[C@H](CC(C)C)NC(=O)C(C)(C)NC(=O)[C@@H](NC(=O)[C@H](CO)NC(=O)[C@H](Cc1ccc(O)cc1)NC(=O)[C@H](CC(=O)O)NC(=O)[C@H](CO)NC(=O)[C@@H](NC(=O)[C@H](Cc1ccccc1)NC(=O)[C@@H](NC(=O)CNC(=O)[C@H](CCC(=O)O)NC(=O)CCNC(=O)C(C)(C)n1cc(Br)cn1)[C@@H](C)O)[C@@H](C)O)[C@@H](C)CC)[C@@H](C)CC)C(C)C)C(=O)N[C@@H](C)C(=O)NCC(=O)NCC(=O)N1CCC[C@H]1C(=O)N[C@@H](CO)C(=O)N[C@@H](CO)C(=O)NCC(=O)N[C@@H](C)C(=O)N1CCC[C@H]1C(=O)N1CCC[C@H]1C(=O)N1CCC[C@H]1C(=O)N[C@@H](CO)C(N)=O [Compound 131] ({X14-βAla}-EGTFTSDYSI[Aib]LDKIAQK([AEEA-AEEA-γGlu-C20 diacid])AFVQWLIAGGPSSGAPPPS-NH2)
- EC50 [1]: 10 to 100 nM
- Emax [1]: 96%
- EC50 [2]: 0.1 to 1 nM
- Emax [2]: 102%
- EC50 [3]: > 1000 nM
- EC50 [4]: > 1000 nM

SMILES: CC[C@H](C)[C@H](NC(=O)[C@H](CC(C)C)NC(=O)[C@H](Cc1c[nH]c2ccccc12)NC(=O)[C@H](CCC(N)=O)NC(=O)[C@@H](NC(=O)[C@H](Cc1ccccc1)NC(=O)[C@H](C)NC(=O)[C@H](CCCCNC(=O)COCCOCCNC(=O)COCCOCCNC(=O)CC[C@H](NC(=O)CCCCCCCCCCCCCCCCCCC(=O)O)C(=O)O)NC(=O)[C@H](CCC(N)=O)NC(=O)[C@H](C)NC(=O)[C@@H](NC(=O)[C@H](CCCCN)NC(=O)[C@H](CC(=O)O)NC(=O)[C@H](CC(C)C)NC(=O)C(C)(C)NC(=O)[C@@H](NC(=O)[C@H](CO)NC(=O)[C@H](Cc1ccc(O)cc1)NC(=O)[C@H](CC(=O)O)NC(=O)[C@H](CO)NC(=O)[C@@H](NC(=O)[C@H](Cc1ccccc1)NC(=O)[C@@H](NC(=O)CNC(=O)[C@H](CCC(=O)O)NC(=O)CCNC(=O)C(C)(C)n1cc(F)cn1)[C@@H](C)O)[C@@H](C)O)[C@@H](C)CC)[C@@H](C)CC)C(C)C)C(=O)N[C@@H](C)C(=O)NCC(=O)NCC(=O)N1CCC[C@H]1C(=O)N[C@@H](CO)C(=O)N[C@@H](CO)C(=O)NCC(=O)N[C@@H](C)C(=O)N1CCC[C@H]1C(=O)N1CCC[C@H]1C(=O)N1CCC[C@H]1C(=O)N[C@@H](CO)C(N)=O [Compound 132] ({X25-βAla}-EGTFTSDYSI[Aib]LDKIAQK([AEEA-AEEA-γGlu-C20 diacid])AFVQWLIAGGPSSGAPPPS-NH2)
- EC50 [1]: 10 to 100 nM
- Emax [1]: 104%
- EC50 [2]: < 0.1 nM
- Emax [2]: 98%
- EC50 [3]: < 1000 nM
- EC50 [4]: > 1000 nM

SMILES: CC[C@H](C)[C@H](NC(=O)[C@H](CC(C)C)NC(=O)[C@H](Cc1c[nH]c2ccccc12)NC(=O)[C@H](CCC(N)=O)NC(=O)[C@@H](NC(=O)[C@H](Cc1ccccc1)NC(=O)[C@H](C)NC(=O)[C@H](CCCCNC(=O)COCCOCCNC(=O)COCCOCCNC(=O)CC[C@H](NC(=O)CCCCCCCCCCCCCCCCCCC(=O)O)C(=O)O)NC(=O)[C@H](CCC(N)=O)NC(=O)[C@H](C)NC(=O)[C@@H](NC(=O)[C@H](CCCCN)NC(=O)[C@H](CC(=O)O)NC(=O)[C@H](CC(C)C)NC(=O)C(C)(C)NC(=O)[C@@H](NC(=O)[C@H](CO)NC(=O)[C@H](Cc1ccc(O)cc1)NC(=O)[C@H](CC(=O)O)NC(=O)[C@H](CO)NC(=O)[C@@H](NC(=O)[C@H](Cc1ccccc1)NC(=O)[C@@H](NC(=O)CNC(=O)[C@H](CCC(=O)O)NC(=O)CCNC(=O)C(C)(C)c1cc(N)cc(F)c1)[C@@H](C)O)[C@@H](C)O)[C@@H](C)CC)[C@@H](C)CC)C(C)C)C(=O)N[C@@H](C)C(=O)NCC(=O)NCC(=O)N1CCC[C@H]1C(=O)N[C@@H](CO)C(=O)N[C@@H](CO)C(=O)NCC(=O)N[C@@H](C)C(=O)N1CCC[C@H]1C(=O)N1CCC[C@H]1C(=O)N1CCC[C@H]1C(=O)N[C@@H](CO)C(N)=O [Compound 133] ({X65-βAla}-EGTFTSDYSI[Aib]LDKIAQK([AEEA-AEEA-γGlu-C20 diacid])AFVQWLIAGGPSSGAPPPS-NH2)
- EC50 [1]: 100 to 1000 nM
- Emax [1]: 107%
- EC50 [2]: 0.1 to 1 nM
- Emax [2]: 104%
- EC50 [3]: > 1000 nM
- EC50 [4]: > 1000 nM

SMILES: CC[C@H](C)[C@H](NC(=O)[C@H](CC(C)C)NC(=O)[C@H](Cc1ccc(O)cc1)NC(=O)[C@@H](CCC(=O)O)NC(=O)[C@@H](NC(=O)[C@H](Cc1ccccc1)NC(=O)[C@H](CCC(=O)O)NC(=O)C(C)(C)NC(=O)[C@H](CCC(N)=O)NC(=O)[C@H](C)NC(=O)[C@H](CCCCNC(=O)COCCOCCNC(=O)COCCOCCNC(=O)CC[C@H](NC(=O)CCCCCCCCCCCCCCCCCCC(=O)O)C(=O)O)NC(=O)[C@H](CCCN)NC(=O)[C@H](CC(=O)O)NC(=O)[C@H](CC(C)C)NC(=O)[C@](C)(CC(C)C)NC(=O)[C@@H](NC(=O)[C@H](CO)NC(=O)[C@H](Cc1ccc(O)cc1)NC(=O)[C@H](CC(=O)O)NC(=O)[C@H](CO)NC(=O)[C@@H](NC(=O)[C@H](Cc1ccccc1)NC(=O)[C@@H](NC(=O)CNC(=O)[C@H](CCC(=O)O)NC(=O)CCNC(=O)C(C)(C)c1cc(F)cc(C#N)c1)[C@@H](C)O)[C@@H](C)O)[C@@H](C)CC)[C@@H](C)CC)C(=O)N[C@@H](CCC(=O)O)C(=O)NCC(=O)NCC(=O)N1CCC[C@H]1C(=O)N[C@@H](CO)C(=O)N[C@@H](CO)C(=O)NCC(=O)N[C@@H](C)C(=O)N1CCC[C@H]1C(=O)N1CCC[C@H]1C(=O)N1CCC[C@H]1C(=O)N[C@@H](CO)C(N)=O [Compound 134] ({Isobutyryl(2-(3-CN-5-F-Ph))-βAla}-EGTFTSDYSI[αMeL]LD[Orn]K([AEEA-AEEA-γGlu-C20 diacid])AQ[Aib]EFI[dE]YLIEGGPSSGAPPPS-NH2)
- EC50 [1]: 1 to 10 nM
- Emax [1]: 109%
- EC50 [2]: 0.1 to 1 nM
- Emax [2]: 102%
- EC50 [3]: > 1000 nM
- EC50 [4]: > 1000 nM

SMILES: CC[C@H](C)[C@H](NC(=O)[C@H](CC(C)C)NC(=O)[C@H](Cc1c[nH]c2ccccc12)NC(=O)[C@H](CCC(N)=O)NC(=O)[C@@H](NC(=O)[C@H](Cc1ccccc1)NC(=O)[C@H](C)NC(=O)[C@H](CCCCNC(=O)COCCOCCNC(=O)COCCOCCNC(=O)CC[C@H](NC(=O)CCCCCCCCCCCCCCCCCCC(=O)O)C(=O)O)NC(=O)[C@H](CCC(N)=O)NC(=O)[C@H](C)NC(=O)[C@@H](NC(=O)[C@H](CCCCN)NC(=O)[C@H](CC(=O)O)NC(=O)[C@H](CC(C)C)NC(=O)C(C)(C)NC(=O)[C@@H](NC(=O)[C@H](CO)NC(=O)[C@H](Cc1ccc(O)cc1)NC(=O)[C@H](CC(=O)O)NC(=O)[C@H](CO)NC(=O)[C@@H](NC(=O)[C@H](Cc1ccccc1)NC(=O)[C@@H](NC(=O)CNC(=O)[C@H](CCC(=O)O)NC(=O)CCNC(=S)C(C)(C)c1cc(F)cc(C#N)c1)[C@@H](C)O)[C@@H](C)O)[C@@H](C)CC)[C@@H](C)CC)C(C)C)C(=O)N[C@@H](C)C(=O)NCC(=O)NCC(=O)N1CCC[C@H]1C(=O)N[C@@H](CO)C(=O)N[C@@H](CO)C(=O)NCC(=O)N[C@@H](C)C(=O)N1CCC[C@H]1C(=O)N1CCC[C@H]1C(=O)N1CCC[C@H]1C(=O)N[C@@H](CO)C(N)=O [Compound 135] (X31-EGTFTSDYSI[Aib]LDKIAQK([AEEA-AEEA-γGlu-C20 diacid])AFVQWLIAGGPSSGAPPPS-NH2)
- EC50 [1]: 10 to 100 nM
- Emax [1]: 87%
- EC50 [2]: 0.1 to 1 nM
- Emax [2]: 99%
- EC50 [3]: > 1000 nM
- EC50 [4]: > 1000 nM
